The target in one assay is T1, PI3Kalpha (Homo sapiens, UniProt P42336).
T1 construct: His (N); host or cells: SF9 insect cells (baculovirus)
As to the kind of experiment: Human PI3Kα enzyme assay (HTRF). The assay is classed as biochemical. An excerpt: (§1) The catalytic subunits of PI3Ks are cloned into either pDEST8(p110 alpha) or pDEST10(p110beta, p110delta, and p110gamma) as N-terminal His tagged fusion proteins using the Gateway system (Invitrogen, catalog#11804-010 for pDEST8 and 11806-015 for pDEST10). The sequences are verified before recombinant protein expression using the Baculovirus Expression System with Gateway® Technology. The accession numbers for the subunits are as follows: • p110 alpha (GB: U79143) • p110beta (GB: S67334) • p110delta (GB: U86453) • p110gamma (GB: X83368)
(§2) The regulatory subunits of PI3Ks are cloned into pDEST8 as un-tagged protein using the Gateway system (Catalog#11804-010). […]
(§3) 0.5 uL compounds in DMSO are added to wells of a 384 well microtitre plate (Corning 3575). […] Then 5 ul PI3K stop mix (50 mM Hepes, 5 mM DTT, 150 mM NaCl, 0.01% Tween-20, 15 mM EDTA and 25 nM biotin-PI(3,4,5)P3 (Echelon) is added to quench the reaction followed immediately by addition of 5 ul HTRF detection mix (50 mM Hepes, 5 mM DTT, 150 mM NaCl, 0.01% Tween-20, 40 mM KF, 10 nM GST:GRP-1 PH domain (Millennium Protein Sciences Group), 15 nM Streptavidin-XL (CisBio) and 0.375 nM anti-GST antibody (CisBio) at pH 7.00). The plates are then incubated for 1 hour at room temperature with shaking and then read on a BMG PheraStar Plus reader.

The target of the next assay is T2, PI3K beta (Homo sapiens, UniProt P42338).
T2 construct: His (N); host or cells: SF9 insect cells (baculovirus)
As to the kind of experiment: Human PI3K beta enzyme assay (HTRF, procedure as for PI3K alpha). The assay is classed as biochemical.
From the text: as §1, §2
as §3, with “reader. […]” for “reader.”

Molecules are shown by their SMILES.

T1 sequence (P42336 whole entry): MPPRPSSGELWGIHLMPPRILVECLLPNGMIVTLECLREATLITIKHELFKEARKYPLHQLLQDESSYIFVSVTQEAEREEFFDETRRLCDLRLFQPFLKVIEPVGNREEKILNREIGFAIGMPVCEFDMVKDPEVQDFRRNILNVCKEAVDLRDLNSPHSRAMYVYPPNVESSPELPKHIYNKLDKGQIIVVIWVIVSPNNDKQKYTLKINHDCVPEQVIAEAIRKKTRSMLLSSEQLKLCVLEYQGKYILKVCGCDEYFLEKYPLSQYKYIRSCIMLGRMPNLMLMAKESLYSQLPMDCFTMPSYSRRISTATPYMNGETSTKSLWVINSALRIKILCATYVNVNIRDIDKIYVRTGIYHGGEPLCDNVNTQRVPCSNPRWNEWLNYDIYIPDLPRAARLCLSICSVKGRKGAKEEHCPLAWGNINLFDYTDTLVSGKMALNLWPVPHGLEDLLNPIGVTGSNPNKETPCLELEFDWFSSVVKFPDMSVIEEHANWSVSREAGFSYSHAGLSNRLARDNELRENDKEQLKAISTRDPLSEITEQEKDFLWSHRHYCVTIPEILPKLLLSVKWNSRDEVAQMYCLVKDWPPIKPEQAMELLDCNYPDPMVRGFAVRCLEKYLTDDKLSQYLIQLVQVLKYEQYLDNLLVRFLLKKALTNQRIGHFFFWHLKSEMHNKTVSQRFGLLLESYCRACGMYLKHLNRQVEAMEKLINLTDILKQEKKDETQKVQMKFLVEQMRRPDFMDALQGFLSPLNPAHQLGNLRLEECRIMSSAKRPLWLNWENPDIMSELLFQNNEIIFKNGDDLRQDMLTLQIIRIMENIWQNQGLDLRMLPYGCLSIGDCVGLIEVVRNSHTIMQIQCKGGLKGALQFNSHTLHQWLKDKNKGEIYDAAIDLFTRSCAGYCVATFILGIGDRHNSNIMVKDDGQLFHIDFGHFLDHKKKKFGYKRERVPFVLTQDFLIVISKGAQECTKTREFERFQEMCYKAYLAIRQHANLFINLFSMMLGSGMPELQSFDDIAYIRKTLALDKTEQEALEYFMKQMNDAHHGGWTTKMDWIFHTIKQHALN
T1 sequence (P27986 whole entry partner): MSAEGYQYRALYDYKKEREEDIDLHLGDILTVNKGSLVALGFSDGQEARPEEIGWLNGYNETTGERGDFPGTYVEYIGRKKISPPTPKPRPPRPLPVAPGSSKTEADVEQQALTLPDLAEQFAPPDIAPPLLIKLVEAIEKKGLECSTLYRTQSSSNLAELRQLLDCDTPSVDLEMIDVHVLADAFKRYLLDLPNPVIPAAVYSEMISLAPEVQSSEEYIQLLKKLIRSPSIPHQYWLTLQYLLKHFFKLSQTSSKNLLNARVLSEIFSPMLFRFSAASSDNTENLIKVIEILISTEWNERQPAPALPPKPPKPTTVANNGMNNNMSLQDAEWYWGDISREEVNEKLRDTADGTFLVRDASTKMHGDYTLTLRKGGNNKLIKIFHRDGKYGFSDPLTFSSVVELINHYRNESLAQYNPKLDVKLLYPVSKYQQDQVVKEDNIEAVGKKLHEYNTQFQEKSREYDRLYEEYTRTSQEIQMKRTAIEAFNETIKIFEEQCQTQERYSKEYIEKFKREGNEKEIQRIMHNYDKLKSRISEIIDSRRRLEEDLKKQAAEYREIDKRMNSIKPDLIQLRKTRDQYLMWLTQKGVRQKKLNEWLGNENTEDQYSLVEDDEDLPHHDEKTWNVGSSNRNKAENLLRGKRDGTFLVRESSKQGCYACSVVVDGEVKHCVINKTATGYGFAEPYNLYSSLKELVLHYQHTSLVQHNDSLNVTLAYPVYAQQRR
T2 sequence (P42338 whole entry): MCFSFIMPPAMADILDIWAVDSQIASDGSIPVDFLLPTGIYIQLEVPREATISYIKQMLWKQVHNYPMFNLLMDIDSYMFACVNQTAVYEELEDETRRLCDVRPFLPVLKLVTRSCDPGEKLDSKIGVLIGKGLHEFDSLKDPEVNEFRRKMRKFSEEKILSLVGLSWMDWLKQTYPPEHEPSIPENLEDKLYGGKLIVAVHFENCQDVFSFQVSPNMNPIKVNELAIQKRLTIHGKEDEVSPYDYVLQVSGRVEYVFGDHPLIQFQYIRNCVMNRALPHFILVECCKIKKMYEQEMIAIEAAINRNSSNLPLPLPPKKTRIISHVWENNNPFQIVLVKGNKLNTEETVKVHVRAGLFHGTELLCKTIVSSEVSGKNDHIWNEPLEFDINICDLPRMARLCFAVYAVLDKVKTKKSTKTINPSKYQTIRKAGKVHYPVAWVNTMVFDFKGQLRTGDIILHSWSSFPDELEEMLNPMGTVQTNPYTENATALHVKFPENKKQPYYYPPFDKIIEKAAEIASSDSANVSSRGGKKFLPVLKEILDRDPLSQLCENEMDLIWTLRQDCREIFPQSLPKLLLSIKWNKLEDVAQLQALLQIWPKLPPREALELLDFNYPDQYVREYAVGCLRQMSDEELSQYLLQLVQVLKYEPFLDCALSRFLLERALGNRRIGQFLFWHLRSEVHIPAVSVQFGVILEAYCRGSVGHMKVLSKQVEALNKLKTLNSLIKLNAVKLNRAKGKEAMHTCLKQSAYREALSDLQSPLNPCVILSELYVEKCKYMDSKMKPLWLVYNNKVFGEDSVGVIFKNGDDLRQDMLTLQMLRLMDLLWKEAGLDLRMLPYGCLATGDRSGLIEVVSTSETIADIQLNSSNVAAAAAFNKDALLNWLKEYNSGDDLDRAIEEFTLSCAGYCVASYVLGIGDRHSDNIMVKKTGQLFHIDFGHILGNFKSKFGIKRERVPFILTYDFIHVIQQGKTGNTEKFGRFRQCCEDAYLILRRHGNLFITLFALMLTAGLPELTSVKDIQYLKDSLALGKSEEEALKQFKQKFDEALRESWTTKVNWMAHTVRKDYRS
T2 sequence (P27986 whole entry partner): as the sequence (P27986 whole entry partner) above

`NC(=O)c1nc(-c2ccncc2)oc1Cc1ccc(Cl)cc1` [Compound 1, 5-(4-chlorobenzyl)-2-pyridin-4-yl-1,3-oxazole-4-carboxamide]: the IC50 at PI3Kalpha was above 1000 nM; against PI3K beta it was 100 to 1000 nM.
As for `Clc1ccc(Cc2oc(-c3ccncc3)nc2-c2nnc[nH]2)cc1` [Compound 2, 4-[5-(4-chlorobenzyl)-4-(4H-1,2,4-triazol-3-yl)-1,3-oxazol-2-yl]pyridine], the half-inhibitory concentration (IC50) against PI3Kalpha is above 1000 nM; at PI3K beta, 100 to 1000 nM.

For the origin of these results see US9062038B2, “Heteroaryls and uses thereof” (Millennium Pharmaceuticals, Inc., priority 2010, dated 2015).
